# How the values were obtained:
# IKKε = IKKε (Homo sapiens (Human), UniProt Q14164); test: IKKε TR-FRET enzymatic assay; format: biochemical; conditions: TR-FRET, 2×Km ATP; geometric mean of minimum four determinations; read-out: IKKe IC50
# hJAK2 = hJAK2 (Homo sapiens (Human), UniProt O60674); test: hJAK2 LANCE TR-FRET enzymatic assay; format: biochemical; conditions: read-out: JAK2 IC50
# TBK1 = TBK1 (Homo sapiens (Human), UniProt Q9UHD2); test: TBK1 TR-FRET enzymatic assay;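 note: phosphorylation of a biotinylated Ser/Thr peptide by purified full-length recombinant TBK1, read by TR-FRET after 240 min at 25 °C, IC50 is the geometric mean of at least four runs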
# Sequence of TBK1 (Q9UHD2 whole entry): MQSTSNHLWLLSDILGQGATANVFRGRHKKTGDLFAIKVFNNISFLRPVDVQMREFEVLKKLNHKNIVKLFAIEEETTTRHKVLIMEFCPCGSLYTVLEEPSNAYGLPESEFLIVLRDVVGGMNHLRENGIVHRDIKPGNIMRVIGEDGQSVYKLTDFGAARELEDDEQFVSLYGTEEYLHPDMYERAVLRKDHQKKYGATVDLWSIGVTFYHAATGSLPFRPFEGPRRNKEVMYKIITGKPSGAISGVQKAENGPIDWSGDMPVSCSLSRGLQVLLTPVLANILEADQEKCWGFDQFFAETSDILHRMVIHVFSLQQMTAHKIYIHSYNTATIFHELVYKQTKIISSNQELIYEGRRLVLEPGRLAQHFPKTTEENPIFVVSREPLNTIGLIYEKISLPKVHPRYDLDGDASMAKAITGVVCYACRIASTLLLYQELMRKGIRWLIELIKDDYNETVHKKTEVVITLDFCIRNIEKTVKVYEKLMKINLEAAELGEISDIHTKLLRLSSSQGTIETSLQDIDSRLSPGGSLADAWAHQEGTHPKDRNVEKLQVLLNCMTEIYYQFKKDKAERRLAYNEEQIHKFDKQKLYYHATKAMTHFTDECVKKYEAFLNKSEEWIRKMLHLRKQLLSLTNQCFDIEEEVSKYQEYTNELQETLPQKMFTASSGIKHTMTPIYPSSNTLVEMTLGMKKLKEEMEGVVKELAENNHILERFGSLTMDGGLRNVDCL
# Sequence of IKKε (Q14164 whole entry): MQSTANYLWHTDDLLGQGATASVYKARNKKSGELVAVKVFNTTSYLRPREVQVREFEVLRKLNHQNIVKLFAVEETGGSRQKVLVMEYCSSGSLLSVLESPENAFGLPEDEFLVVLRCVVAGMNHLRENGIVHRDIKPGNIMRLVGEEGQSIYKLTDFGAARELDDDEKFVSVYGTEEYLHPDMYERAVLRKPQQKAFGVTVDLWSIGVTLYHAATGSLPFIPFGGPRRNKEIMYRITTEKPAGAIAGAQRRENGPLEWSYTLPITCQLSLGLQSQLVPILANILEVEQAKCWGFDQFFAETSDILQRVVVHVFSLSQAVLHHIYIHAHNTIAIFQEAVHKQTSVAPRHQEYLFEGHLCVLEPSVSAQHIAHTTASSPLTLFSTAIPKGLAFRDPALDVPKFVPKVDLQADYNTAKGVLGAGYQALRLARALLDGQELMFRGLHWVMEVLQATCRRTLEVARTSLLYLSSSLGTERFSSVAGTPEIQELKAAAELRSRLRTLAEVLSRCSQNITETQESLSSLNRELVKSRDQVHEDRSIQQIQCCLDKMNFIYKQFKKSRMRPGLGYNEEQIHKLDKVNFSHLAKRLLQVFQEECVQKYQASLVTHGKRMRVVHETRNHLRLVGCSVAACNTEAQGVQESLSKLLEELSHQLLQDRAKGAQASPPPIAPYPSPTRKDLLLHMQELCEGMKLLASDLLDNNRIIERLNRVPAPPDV
# Sequence of hJAK2 (O60674 whole entry): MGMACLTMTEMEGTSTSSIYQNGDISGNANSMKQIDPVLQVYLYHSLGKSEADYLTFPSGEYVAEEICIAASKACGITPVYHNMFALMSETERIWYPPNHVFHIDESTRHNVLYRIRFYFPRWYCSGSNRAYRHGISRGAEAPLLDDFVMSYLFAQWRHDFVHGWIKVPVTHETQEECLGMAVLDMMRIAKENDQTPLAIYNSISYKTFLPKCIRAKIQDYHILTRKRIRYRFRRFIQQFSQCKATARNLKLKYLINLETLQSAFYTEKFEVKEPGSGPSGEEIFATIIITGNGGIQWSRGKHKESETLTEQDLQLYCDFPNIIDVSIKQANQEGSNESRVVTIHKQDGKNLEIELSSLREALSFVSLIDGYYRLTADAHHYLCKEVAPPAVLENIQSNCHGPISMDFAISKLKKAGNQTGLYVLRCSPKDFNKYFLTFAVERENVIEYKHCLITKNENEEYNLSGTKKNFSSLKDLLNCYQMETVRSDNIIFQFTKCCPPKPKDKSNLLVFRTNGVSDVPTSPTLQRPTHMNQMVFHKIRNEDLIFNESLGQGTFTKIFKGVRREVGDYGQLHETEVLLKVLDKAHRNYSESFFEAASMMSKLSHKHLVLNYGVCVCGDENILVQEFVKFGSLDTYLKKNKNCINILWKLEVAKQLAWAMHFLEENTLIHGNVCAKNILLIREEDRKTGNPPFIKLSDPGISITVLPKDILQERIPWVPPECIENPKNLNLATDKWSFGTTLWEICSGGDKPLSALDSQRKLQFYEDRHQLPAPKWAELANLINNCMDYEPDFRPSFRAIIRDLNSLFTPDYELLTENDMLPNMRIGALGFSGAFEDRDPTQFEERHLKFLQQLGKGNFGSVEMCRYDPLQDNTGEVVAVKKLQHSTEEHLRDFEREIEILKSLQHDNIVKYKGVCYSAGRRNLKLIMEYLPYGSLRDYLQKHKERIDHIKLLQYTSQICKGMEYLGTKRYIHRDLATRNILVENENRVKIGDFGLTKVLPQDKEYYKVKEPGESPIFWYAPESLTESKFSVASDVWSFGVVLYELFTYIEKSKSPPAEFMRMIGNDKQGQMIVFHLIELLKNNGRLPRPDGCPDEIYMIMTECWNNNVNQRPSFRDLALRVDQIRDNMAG
structure (smiles),measurement,setting,value
"Cc1cc(Nc2ncnc(-c3ccc(O[C@H]4CCN(C(=O)[C@H](C)O)C[C@H]4F)c(C#N)c3)n2)ccc1C1CCN(C=O)CC1 [Example 493, 2-(((3R,4S)-3-fluoro-1-((S)-2-hydroxypropanoyl)piperidin-4-yl)oxy)-5-(4-((4-(1-formylpiperidin-4-yl)-3-methylphenyl)amino)-1,3,5-triazin-2-yl)benzonitrile]",IC50,IKKε,1 nM
same,IC50,hJAK2,782 nM
same,IC50,TBK1,2 nM
"N#CCC(=O)Nc1ccc(-c2ncnc(Nc3ccc(N4CCN(C5COC5)CC4)cc3)n2)cc1C#N [Example 494, 2-cyano-N-(2-cyano-4-(4-((4-(4-(oxetan-3-yl)piperazin-1-yl)phenyl)amino)-1,3,5-triazin-2-yl)phenyl)acetamide]",IC50,IKKε,29 nM
same,IC50,hJAK2,12 nM
same,IC50,TBK1,19 nM
"CCC(=O)Nc1ccc(-c2ncnc(Nc3ccc(N4CCN(C5COC5)CC4)cc3)n2)cc1C#N [Example 495, N-(2-cyano-4-(4-((4-(4-(oxetan-3-yl)piperazin-1-yl)phenyl)amino)-1,3,5-triazin-2-yl)phenyl)propionamide]",IC50,IKKε,119 nM
same,IC50,hJAK2,109 nM
same,IC50,TBK1,40 nM
"N#Cc1cc(-c2ncnc(Nc3ccc(N4CCN(C5COC5)CC4)cc3)n2)ccc1NC(=O)CC(F)(F)F [Example 496, N-(2-cyano-4-(4-((4-(4-(oxetan-3-yl)piperazin-1-yl)phenyl)amino)-1,3,5-triazin-2-yl)phenyl)-3,3,3-trifluoropropanamide]",IC50,IKKε,8 nM
same,IC50,hJAK2,8 nM
same,IC50,TBK1,6 nM
"COc1cc(Nc2ncnc(-c3ccc(O[C@H]4CCN(C(=O)[C@H](C)O)C[C@H]4F)c(C#N)c3)n2)ccc1N1CCN(C)C[C@@H]1C [Example 499, 5-(4-((4-((S)-2,4-dimethylpiperazin-1-yl)-3-methoxyphenyl)amino)-1,3,5-triazin-2-yl)-2-(((3R,4S)-3-fluoro-1-((S)-2-hydroxypropanoyl)piperidin-4-yl)oxy)benzonitrile]",IC50,IKKε,1 nM
same,IC50,hJAK2,79 nM
same,IC50,TBK1,2 nM
"CCn1cc(Nc2ncnc(-c3ccc(O[C@H]4CCN(C(=O)CO)C[C@H]4F)c(C#N)c3)n2)nn1 [Example 502, 5-(4-((1-ethyl-1H-1,2,3-triazol-4-yl)amino)-1,3,5-triazin-2-yl)-2-(((3R,4S)-3-fluoro-1-(2-hydroxyacetyl)piperidin-4-yl)oxy)benzonitrile]",IC50,IKKε,29 nM
same,IC50,hJAK2,≥ 1000 nM
same,IC50,TBK1,28 nM
"CCn1ncc(Nc2ncnc(-c3ccc(O[C@H]4CCN(C(=O)CO)C[C@H]4F)c(C#N)c3)n2)n1 [Example 503, 5-(4-((2-ethyl-2H-1,2,3-triazol-4-yl)amino)-1,3,5-triazin-2-yl)-2-(((3R,4S)-3-fluoro-1-(2-hydroxyacetyl)piperidin-4-yl)oxy)benzonitrile]",IC50,IKKε,20 nM
same,IC50,hJAK2,≥ 1000 nM
same,IC50,TBK1,7 nM
"N#Cc1cc(-c2ncnc(Nc3ccc(N4CCN(C5COC5)CC4)cc3)n2)ccc1O[C@H]1CCN(C(=O)[C@@H]2CCCO2)C[C@H]1F [Example 504, 2-(((3R,4S)-3-fluoro-1-((S)-tetrahydrofuran-2-carbonyl)piperidin-4-yl)oxy)-5-(4-((4-(4-(oxetan-3-yl)piperazin-1-yl)phenyl)amino)-1,3,5-triazin-2-yl)benzonitrile]",IC50,IKKε,5 nM
same,IC50,hJAK2,≥ 1000 nM
same,IC50,TBK1,4 nM
"N#Cc1cc(-c2ncnc(Nc3ccc(N4CCN(C5COC5)CC4)cc3)n2)ccc1O[C@H]1CCN(C(=O)[C@H]2CCCO2)C[C@H]1F [Example 505, 2-(((3R,4S)-3-fluoro-1-((R)-tetrahydrofuran-2-carbonyl)piperidin-4-yl)oxy)-5-(4-((4-(4-(oxetan-3-yl)piperazin-1-yl)phenyl)amino)-1,3,5-triazin-2-yl)benzonitrile]",IC50,IKKε,41 nM
same,IC50,hJAK2,532 nM
same,IC50,TBK1,12 nM
"N#Cc1cc(-c2ncnc(Nc3cnn(CCO)c3)n2)ccc1O[C@H]1CCN(C(=O)CO)C[C@H]1F [Example 506, 2-(((3R,4S)-3-fluoro-1-(2-hydroxyacetyl)piperidin-4-yl)oxy)-5-(4-((1-(2-hydroxyethyl)-1H-pyrazol-4-yl)amino)-1,3,5-triazin-2-yl)benzonitrile]",IC50,IKKε,3 nM
same,IC50,hJAK2,601 nM
same,IC50,TBK1,3 nM
"N#Cc1cc(-c2ncnc(Nc3cn[nH]c3)n2)ccc1O[C@H]1CCN(C(=O)CO)C[C@H]1F [Example 507, 5-(4-((1H-pyrazol-4-yl)amino)-1,3,5-triazin-2-yl)-2-(((3R,4S)-3-fluoro-1-(2-hydroxyacetyl)piperidin-4-yl)oxy)benzonitrile]",IC50,IKKε,2 nM
same,IC50,hJAK2,432 nM
same,IC50,TBK1,3 nM
"N#Cc1cc(-c2ncnc(Nc3ccc(C4CCN(C5COC5)CC4)cc3)n2)ccc1O[C@H]1CCN(C(=O)[C@@H](O)CO)C[C@H]1F [Example 509, 2-(((3R,4S)-1-((S)-2,3-dihydroxypropanoyl)-3-fluoropiperidin-4-yl)oxy)-5-(4-((4-(1-(oxetan-3-yl)piperidin-4-yl)phenyl)amino)-1,3,5-triazin-2-yl)benzonitrile]",IC50,IKKε,1 nM
same,IC50,hJAK2,699 nM
same,IC50,TBK1,3 nM
"N#Cc1cc(-c2ncnc(Nc3ccc(N4CCN(C5COC5)CC4)nc3)n2)ccc1O[C@H]1CCN(C(=O)[C@@H](O)CO)C[C@H]1F [Example 510, 2-(((3R,4S)-1-((S)-2,3-dihydroxypropanoyl)-3-fluoropiperidin-4-yl)oxy)-5-(4-((6-(4-(oxetan-3-yl)piperazin-1-yl)pyridin-3-yl)amino)-1,3,5-triazin-2-yl)benzonitrile]",IC50,IKKε,2 nM
same,IC50,hJAK2,≥ 1000 nM
same,IC50,TBK1,4 nM
"COc1cc(Nc2ncnc(-c3ccc(O[C@H]4CCN(C(=O)[C@@H](O)CO)C[C@H]4F)c(C#N)c3)n2)cnc1N1CCN(C2COC2)CC1 [Example 511, 2-(((3R,4S)-1-((S)-2,3-dihydroxypropanoyl)-3-fluoropiperidin-4-yl)oxy)-5-(4-((5-methoxy-6-(4-(oxetan-3-yl)piperazin-1-yl)pyridin-3-yl)amino)-1,3,5-triazin-2-yl)benzonitrile]",IC50,IKKε,2 nM
same,IC50,hJAK2,≥ 1000 nM
same,IC50,TBK1,4 nM
"CC(C)(O)Cn1cc(Nc2ncnc(-c3ccc(O[C@H]4CCN(C(=O)[C@@H](O)CO)C[C@H]4F)c(C#N)c3)n2)cn1 [Example 512, 2-(((3R,4S)-1-((S)-2,3-dihydroxypropanoyl)-3-fluoropiperidin-4-yl)oxy)-5-(4-((1-(2-hydroxy-2-methylpropyl)-1H-pyrazol-4-yl)amino)-1,3,5-triazin-2-yl)benzonitrile]",IC50,IKKε,2 nM
same,IC50,hJAK2,≥ 1000 nM
same,IC50,TBK1,2 nM
"Cc1cc(Nc2ncnc(-c3ccc(O[C@H]4CCN(C(=O)[C@@H](O)CO)C[C@H]4F)c(C#N)c3)n2)cnc1N1CCN(C2COC2)CC1 [Example 513, 2-(((3R,4S)-1-((S)-2,3-dihydroxypropanoyl)-3-fluoropiperidin-4-yl)oxy)-5-(4-((5-methyl-6-(4-(oxetan-3-yl)piperazin-1-yl)pyridin-3-yl)amino)-1,3,5-triazin-2-yl)benzonitrile]",IC50,IKKε,1 nM
same,IC50,hJAK2,517 nM
same,IC50,TBK1,2 nM
"C[C@H](O)C(=O)N1CC[C@H](Oc2ccc(-c3ncnc(Nc4cnc5c(c4)OCCN5)n3)cc2C#N)[C@H](F)C1 [Example 516, 5-(4-((3,4-dihydro-2H-pyrido[3,2-b][1,4]oxazin-7-yl)amino)-1,3,5-triazin-2-yl)-2-(((3R,4S)-3-fluoro-1-((S)-2-hydroxypropanoyl)piperidin-4-yl)oxy)benzonitrile]",IC50,IKKε,10 nM
same,IC50,hJAK2,≥ 1000 nM
same,IC50,TBK1,6 nM
"C[C@H](O)C(=O)N1CC[C@H](Oc2ccc(-c3ncnc(Nc4ccc5c(c4)NCCO5)n3)cc2C#N)[C@H](F)C1 [Example 517, 5-(4-((3,4-dihydro-2H-benzo[b][1,4]oxazin-6-yl)amino)-1,3,5-triazin-2-yl)-2-(((3R,4S)-3-fluoro-1-((S)-2-hydroxypropanoyl)piperidin-4-yl)oxy)benzonitrile]",IC50,IKKε,1 nM
same,IC50,hJAK2,828 nM
same,IC50,TBK1,2 nM
"N#Cc1cc(-c2ncnc(Nc3ccc(N4CCN(C5COC5)CC4)cc3)n2)ccc1O[C@H]1CCN(C(=O)[C@@H]2COC(=O)N2)CC1(F)F [Example 519, 2-(((S)-3,3-difluoro-1-((S)-2-oxooxazolidine-4-carbonyl)piperidin-4-yl)oxy)-5-(4-((4-(4-(oxetan-3-yl)piperazin-1-yl)phenyl)amino)-1,3,5-triazin-2-yl)benzonitrile]",IC50,IKKε,1 nM
same,IC50,hJAK2,184 nM
same,IC50,TBK1,2 nM
"N#Cc1cc(-c2ncnc(Nc3ccc(N4CCN(C5COC5)CC4)cc3)n2)ccc1O[C@H]1CCN(C(=O)[C@@H]2CSC(=O)N2)CC1(F)F [Example 520, 2-(((S)-3,3-difluoro-1-((R)-2-oxothiazolidine-4-carbonyl)piperidin-4-yl)oxy)-5-(4-((4-(4-(oxetan-3-yl)piperazin-1-yl)phenyl)amino)-1,3,5-triazin-2-yl)benzonitrile]",IC50,IKKε,1 nM
same,IC50,hJAK2,177 nM
same,IC50,TBK1,2 nM
"Cc1cc(-c2ncnc(Nc3ccc(N4CCN(C5COC5)CC4)cc3)n2)cc(C#N)c1O[C@H]1CCN(C(=O)[C@H](C)O)C[C@H]1F [Example 521, 2-(((3R,4S)-3-fluoro-1-((S)-2-hydroxypropanoyl)piperidin-4-yl)oxy)-3-methyl-5-(4-((4-(4-(oxetan-3-yl)piperazin-1-yl)phenyl)amino)-1,3,5-triazin-2-yl)benzonitrile]",IC50,IKKε,39 nM
same,IC50,hJAK2,≥ 1000 nM
same,IC50,TBK1,16 nM
"Cc1cc(-c2ncnc(Nc3ccc(N4CCN(C5COC5)CC4)cc3)n2)cc(C#N)c1O[C@H]1CCN(C(=O)CO)C[C@H]1F [Example 522, 2-(((3R,4S)-3-fluoro-1-(2-hydroxyacetyl)piperidin-4-yl)oxy)-3-methyl-5-(4-((4-(4-(oxetan-3-yl)piperazin-1-yl)phenyl)amino)-1,3,5-triazin-2-yl)benzonitrile]",IC50,IKKε,28 nM
same,IC50,hJAK2,≥ 1000 nM
same,IC50,TBK1,14 nM
